Test results taken from patent publication US6150385A, “1,3,4-thiadiazoles useful for the treatment of CMV infections” (Pharmacia & Upjohn Company, priority 1999, dated 2000).

Target: T1, HCMV polymerase (Human cytomegalovirus, UniProt P08546)
T1 construct: made in house; host or cells: SF-9 insect cells infected with recombinant baculovirus
Experiment: HCMV polymerase assay (scintillation proximity assay)
Assay type: biochemical
Conditions: percentage of inhibition at 25 μM concentration in CMV polymerase assay
How it was run: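 Baculovirus/SF-9-expressed HCMV polymerase in 5.4 mM HEPES pH 7.5, 11.7 mM KCl, 4.5 mM MgCl2, 0.36 mg/ml BSA, 90 nM 3H-dTTP, with or without 2 mM CHAPS. Started with 6 nM biotinylated poly(dA)-oligo(dT), 30 min at 25 or 37 °C, EDTA-stopped, read by streptavidin-SPA counting; % inhibition at 25 μM.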

T1 sequence (P08546 whole entry): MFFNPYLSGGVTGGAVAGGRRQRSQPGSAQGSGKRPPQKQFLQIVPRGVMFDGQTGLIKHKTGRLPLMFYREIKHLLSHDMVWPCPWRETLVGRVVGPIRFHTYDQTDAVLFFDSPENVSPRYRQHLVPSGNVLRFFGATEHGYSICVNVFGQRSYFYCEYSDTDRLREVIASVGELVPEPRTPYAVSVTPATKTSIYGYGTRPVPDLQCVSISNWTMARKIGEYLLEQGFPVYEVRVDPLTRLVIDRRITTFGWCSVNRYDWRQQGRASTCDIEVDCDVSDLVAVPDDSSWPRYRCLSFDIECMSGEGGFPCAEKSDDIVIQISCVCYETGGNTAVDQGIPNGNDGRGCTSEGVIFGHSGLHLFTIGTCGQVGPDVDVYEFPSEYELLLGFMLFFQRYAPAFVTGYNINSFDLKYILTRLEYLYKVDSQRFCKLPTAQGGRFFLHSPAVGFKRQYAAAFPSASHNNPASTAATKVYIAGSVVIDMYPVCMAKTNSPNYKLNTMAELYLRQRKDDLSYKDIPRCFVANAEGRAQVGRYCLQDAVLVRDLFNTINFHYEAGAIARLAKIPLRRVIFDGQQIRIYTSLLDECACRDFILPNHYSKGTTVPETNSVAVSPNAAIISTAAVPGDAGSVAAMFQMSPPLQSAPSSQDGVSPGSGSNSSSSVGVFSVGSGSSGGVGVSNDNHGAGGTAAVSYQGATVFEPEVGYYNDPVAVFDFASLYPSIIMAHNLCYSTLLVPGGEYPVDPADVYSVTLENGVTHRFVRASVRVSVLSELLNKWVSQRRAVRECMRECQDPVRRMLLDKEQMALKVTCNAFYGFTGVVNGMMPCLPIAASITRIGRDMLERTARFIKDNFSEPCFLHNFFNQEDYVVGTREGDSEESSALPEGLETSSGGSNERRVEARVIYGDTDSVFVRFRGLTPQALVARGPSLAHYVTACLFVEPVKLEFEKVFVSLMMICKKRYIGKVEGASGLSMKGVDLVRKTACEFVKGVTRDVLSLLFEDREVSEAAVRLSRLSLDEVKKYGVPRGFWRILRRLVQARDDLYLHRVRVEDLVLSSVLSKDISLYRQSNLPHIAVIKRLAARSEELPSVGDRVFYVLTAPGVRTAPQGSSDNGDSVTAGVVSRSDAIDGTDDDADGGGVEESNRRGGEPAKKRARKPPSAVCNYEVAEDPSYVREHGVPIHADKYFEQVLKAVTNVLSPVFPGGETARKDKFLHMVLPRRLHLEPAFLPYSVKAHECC

inhibition at 25 µM [%] | Compound | % Inhib [%]
66 | CCOc1ccc2ccccc2c1C(=O)Nc1nnc(NC2CCCc3ccccc32)s1 (stereo not shown) [compound 93, 2-ethoxy-N-[5-(1,2,3,4-tetrahydro-1-naphthaienylamino)-1,3,4-thiadiazol-2-yl]-1-naphthamide] | –
65.9 | O=C(/C=C/c1ccccc1)Nc1nnc(NCc2ccncc2)s1 [compound 94, (E)-3-phenyl-N-{5-[(4-pyridinylmethyl)amino]-1,3,4-thiadiazol-2-yl}-2-propenamide] | –
65.9 | CCOc1ccc2ccccc2c1C(=O)Nc1nnc(NC2CCc3ccccc32)s1 (stereo not shown) [compound 95, N-[5-(2,3-dihydro-1H-inden-1-ylamino)-1,3,4-thiadiazol-2-yl]-2-ethoxy-1-naphthamide] | –
65.9 | O=C(Nc1nnc(NCc2ccc3c(c2)OCO3)s1)c1c(Cl)cccc1Cl [compound 96] | –
65.8 | CCOc1ccc2ccccc2c1C(=O)Nc1nnc(NCCc2cccs2)s1 [compound 97, 2-ethoxy-N-(5-{[2-(2-thienyl)ethyl]amino}-1,3,4-thiadiazol-2-yl)-1-naphthamide] | –
65.7 | O=C(/C=C/c1ccccc1Cl)Nc1nnc(NCCc2c[nH]cn2)s1 [compound 98, (E)-3-(2-chlorophenyl)-N-(5-{[2-(1H-imidazol-4-yl)ethyl]amino}-1,3,4-thiadiazol-2-yl)-2-propenamide] | –
65.6 | O=C(Nc1nnc(NCCCn2ccnc2)s1)c1c(Cl)cccc1Cl [compound 99, 2,6-dichloro-N-(5-{[3-(1H-imidazol-1-yl)propyl]amino}-1,3,4-thiadiazol-2-yl)benzamide] | –
65.1 | CCCCCCCC/C=C/CCCCCCCC(=O)Nc1nnc(NCc2ccc(OC)c(OC)c2)s1 [compound 100, (E)-N-{5-[(3,4-dimethoxybenzyl)amino]-1,3,4-thiadiazol-2-yl}-9-octadecenamide] | –
65 | O=C(Nc1nnc(NCc2cccc3ccccc23)s1)c1c(Cl)cccc1Cl [compound 101, 2,6-dichloro-N-{5-[(1-naphthylmethyl)amino]-1,3,4-thiadiazol-2-yl}benzamide] | –
64.9 | N#Cc1ccc(C(=O)Nc2nnc(NCCc3cccs3)s2)cc1 [compound 102, 4-cyano-N-(5-{[2-(2-thienyl)ethyl]amino}-1,3,4-thiadiazol-2-yl)benzamide] | –
64.9 | N#Cc1ccc(C(=O)Nc2nnc(NC3CCCCCC3)s2)cc1 [compound 103, 4-cyano-N-[5-(cycloheptylamino)-1,3,4-thiadiazol-2-yl]benzamide] | –
64.7 | O=C(Nc1nnc(NC2CCCCCC2)s1)c1ccc([N+](=O)[O-])o1 [compound 104, N-[5-(cycloheptylamino)-1,3,4-thiadiazol-2-yl]-5-nitro-2-furamide] | –
64.6 | CCCCCCCC/C=C/CCCCCCCC(=O)Nc1nnc(NCCc2ccccc2)s1 [compound 105, (E)-N-[5-(phenethylamino)-1,3,4-thiadiazol-2-yl]-9-octadecenamide] | –
64.2 | CCCCCCCCCCCNc1nnc(NC(=O)CCCCCl)s1 [compound 106, 5-chloro-N-[5-(undecylamino)-1,3,4-thiadiazol-2-yl]pentanamide] | –
63.8 | CCCCCCCC/C=C/CCCCCCCC(=O)Nc1nnc(NC2CCCc3ccccc32)s1 (stereo not shown) [compound 107, (E)-N-[5-(1,2,3,4-tetrahydro-1-naphthalenylamino)-1,3,4-thiadiazol-2-yl]-9-octadecenamide] | –
63.5 | CCCCCCCC/C=C/CCCCCCCC(=O)Nc1nnc(NCCCCc2ccccc2)s1 [compound 108, (E)-N-{5-[(4-phenylbutyl)amino]-1,3,4-thiadiazol-2-yl}-9-octadecenamide] | –
63.4 | CC(C)c1cc(C(C)C)c(C(=O)Nc2nnc(NCCC3CCCN3C)s2)c(C(C)C)c1 (stereo not shown) [compound 109, 2,4,6-triisopropyl-N-(5-{[2-(1-methyl-2-pyrrolidinyl)ethyl]amino]-1,3,4-thiadiazol-2-yl)benzamide] | –
62.9 | O=C(/C=C/c1ccccc1Cl)Nc1nnc(NC2CCN(Cc3ccccc3)CC2)s1 [compound 110, (E)-N-{5-[(1-benzyl-4-piperidinyl)amino]-1,3,4-thiadiazol-2-yl}-3-(2-chlorophenyl)-2-propenamide] | –
– | O=C(Nc1nnc(NCC(c2ccccc2)c2ccccc2)s1)c1ccc(S(=O)(=O)F)cc1 [compound 111, 4-[({5-[(2,2-diphenylethyl)amino]-1,3,4-thiadiazol-2-yl}amino)carbonyl]benzenesulfonyl fluoride] | 62.6
62.5 | O=C(Nc1nnc(NCCCNC2CCCCC2)s1)c1ccc(C(F)(F)F)cc1 [compound 112, N-(5-{[3-(cyclohexylamino)propyl]amino}-1,3,4-thiadiazol-2-yl)-4-(trifluoromethyl)benzamide] | –

inhibition at 25 µM [%] | Compound | % Inhib [%]
62.2 | CCCCCCCC/C=C/CCCCCCCC(=O)Nc1nnc(NCC2CC2)s1 [compound 113, (E)-N-{5-[(cyclopropylmethyl)amino]-1,3,4-thiadiazol-2-yl}-9-octadecenamide] | –
62.1 | O=C(/C=C/c1ccccc1)Nc1nnc(NCCSc2ccccc2)s1 [compound 114, (E)-3-phenyl-N-(5-{[2-(phenylsulfanyl)ethyl]amino}-1,3,4-thiadiazol-2-yl)-2-propenamide] | –
62 | O=C(Nc1nnc(NC2CCc3ccccc32)s1)c1c(Cl)cccc1Cl (stereo not shown) [compound 115, 2,6-dichloro-N-[5-(2,3-dihydro-1H-inden-1-ylamino)-1,3,4-thiadiazol-2-yl]benzamide] | –
61.9 | CCCCC(CC)CNc1nnc(NC(=O)c2ccc3c(c2)C(=O)OC3=O)s1 (stereo not shown) [compound 116, N-{5-[(2-ethylhexyl)amino]-1,3,4-thiadiazol-2-yl}-1,3-dioxo-1,3-dihydro-2-benzofuran-5-carboxamide] | –
61.5 | O=C(/C=C/c1ccccc1Cl)Nc1nnc(NCc2ccc3c(c2)OCO3)s1 [compound 117, (E)-N-{5-[(1,3-benzodioxol-5-ylmethyl)amino]-1,3,4-thiadiazol-2-yl}-3-(2-chlorophenyl)-2-propenamide] | –
61.2 | O=C(Nc1nnc(NCc2cccs2)s1)c1c(Cl)cccc1Cl [compound 118, 2,6-dichloro-N-{5-[(2-thienylmetyl)amino]-1,3,4-thiadiazol-2-yl}benzamide] | –
60.6 | CCCCCCCC/C=C/CCCCCCCC(=O)Nc1nnc(NCc2cccc3ccccc23)s1 [compound 119, (E)-N-{5-[(1-naphthylmethyl)amino]-1,3,4-thiadiazol-2-yl}-9-octadecenamide] | –
60 | CC(C)(C)OC(=O)CCNc1nnc(NC(=O)/C=C/c2ccccc2)s1 [compound 120, tert-butyl 3-[(5-{[(E)-3-phenyl-2-propenoyl]amino}-1,3,4-thiadiazol-2-yl)amino]propanoate] | –
60 | CCCCCCCCCCCNc1nnc(NC(=O)c2ccc(F)cc2F)s1 [compound 121, 2,4-difluoro-N-[5-(undecylamino)-1,3,4-thiadiazol-2-yl]benzamide] | –
59.5 | CCOc1ccc2ccccc2c1C(=O)Nc1nnc(NCc2ccc(OC)c(OC)c2)s1 [compound 122, N-{5-[(3,4-dimethoxybenzyl)amino]-1,3,4-thiadiazol-2-yl}-2-ethoxy-1-naphthamide] | –
59.2 | CCCCCCCC/C=C/CCCCCCCC(=O)Nc1nnc(NCCNC(C)=O)s1 [compound 123, (E)-N-(5-{[2-(acetylamino)ethyl]amino}-1,3,4-thiadiazol-2-yl)-9-octadecenamide] | –
59.2 | O=C(/C=C/c1ccccc1)Nc1nnc(NCCCNC2CCCCC2)s1 [compound 124, (E)-N-(5-{[3-(cyclohexylamino)propyl]amino}-1,3,4-thiadiazol-2-yl)-3-phenyl-2-propenamide] | –
58.9 | NS(=O)(=O)c1ccc(CCNc2nnc(NC(=O)/C=C/c3ccccc3Cl)s2)cc1 [compound 125, (E)-N-(5-{[4-(aminosulfonyl)phenethyl]amino}-1,3,4-thiadizol-2-yl)-3-(2-chlorophenyl)-2-propenamide] | –
58.9 | O=C(Nc1nnc(NCCCNC2CCCCC2)s1)c1ccc([N+](=O)[O-])o1 [compound 126, N-(5-{[3-(cyclohexylamino)propyl]amino}-1,3,4-thiadiazol-2-yl)-5-nitro-2-furamide] | –
58.5 | N#Cc1ccc(C(=O)Nc2nnc(NCCCNC3CCCCC3)s2)cc1 [compound 127] | –
58.3 | CC(C)c1cc(C(C)C)c(C(=O)Nc2nnc(NCCc3ccc(S(N)(=O)=O)cc3)s2)c(C(C)C)c1 [compound 128, N-(5-{[4-(aminosulfonyl)phenethyl]amino}1,3,4-thiadiazol-2-yl)-2,4,6-triisopropylbenzamide] | –
58.3 | CCCCCCCC/C=C/CCCCCCCC(=O)Nc1nnc(NCCSCC)s1 [compound 129, (E)-N-(5-{[2-(ethylsulfanyl)ethyl]amino}1,3,4-thiadiazol-2-yl)-9-octadecenamide] | –
58.2 | O=C(/C=C/c1ccccc1)Nc1nnc(NCCCN2CCCC2=O)s1 [compound 130, (E)-N-(5-{[3-(2-oxo-1-pyrrolidinyl)propyl]amino}-1,3,4-thiadiazol-2-yl)-3-phenyl-2-propenamide] | –
58 | O=C(Nc1nnc(NCCCCc2ccccc2)s1)c1ccc([N+](=O)[O-])o1 [compound 131, 5-nitro-N-{5-[(4-phenylbutyl)amino]-1,3,4-thiadiazol-2-yl}-2-furamide] | –
57 | CCOC(=O)N1CCC(Nc2nnc(NC(=O)c3c(Cl)cccc3Cl)s2)CC1 [compound 132, ethyl 4-({5-[(2,6-dichlorobenzoyl)amino]-1,3,4-thiadiazol-2-yl}amino)tetrahydro-1(2H)-pyridinecarboxylate] | –
